In patent US12077503B2, “Substituted cyclic amides and their use as herbicides” (FMC CORPORATION, priority 2015, dated 2024):

Assays:
Format in all cases: in vivo
Kochia (Kochia scoparia) [1] = test: Test A postemergence; details: Bassia scoparia, post-emergence, 240 h, 125 g ai/ha, Postemergence; visual injury after approximately 10 d; 0 to 100 scale where 0 is no effect and 100 is complete control; read-out: Plant response rating, Kochia
In short: (§1)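 In a loam soil and sand blend, planted seeds got a preemergence directed soil spray, and young plants at the one- to two-leaf stage, 2–10 cm high, got a postemergence application; ~10 d greenhouse hold; injury rated visually, 0 = none, 100 = complete control.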

[2] = system: Galium (catchweed bedstraw, Galium aparine); test: Test A postemergence; details: Galium, post-emergence, 240 h, 125 g ai/ha, Postemergence; visual injury after approximately 10 d; 0 to 100 scale where 0 is no effect and 100 is complete control; read-out: Plant response rating, Galium
In short: as §1

[3] = system: ragweed (common ragweed, Ambrosia elatior); test: Test A postemergence; details: Ambrosia artemisiifolia, post-emergence, 240 h, 125 g ai/ha, Postemergence; visual injury after approximately 10 d; 0 to 100 scale where 0 is no effect and 100 is complete control; read-out: Plant response rating, Ragweed
In short: as §1

[4] = system: wheat (Triticum aestivum); test: Test A postemergence; details: Triticum aestivum, post-emergence, 240 h, 125 g ai/ha, Postemergence; visual injury after approximately 10 d; 0 to 100 scale where 0 is no effect and 100 is complete control; read-out: Plant response rating, Wheat
In short: as §1

[5] = system: giant foxtail (Setaria faberii); test: Test A postemergence; details: Setaria faberi, post-emergence, 240 h, 125 g ai/ha, Postemergence; visual injury after approximately 10 d; 0 to 100 scale where 0 is no effect and 100 is complete control; read-out: Plant response rating, Foxtail, Giant
In short: as §1

[6] = system: pigweed (Amaranthus retroflexus); test: Test A postemergence; details: Amaranthus retroflexus, post-emergence, 240 h, 125 g ai/ha, Postemergence; visual injury after approximately 10 d; 0 to 100 scale where 0 is no effect and 100 is complete control; read-out: Plant response rating, Pigweed
In short: as §1

corn (Zea mays) = test: Test A postemergence; details: Zea mays, post-emergence, 240 h, 125 g ai/ha, Postemergence; visual injury after approximately 10 d; 0 to 100 scale where 0 is no effect and 100 is complete control
In short: as §1

[7] = system: blackgrass (Alopecurus myosuroides); test: Test A postemergence; details: Alopecurus myosuroides, post-emergence, 240 h, 125 g ai/ha, Postemergence; visual injury after approximately 10 d; 0 to 100 scale where 0 is no effect and 100 is complete control; read-out: Plant response rating, Blackgrass
In short: as §1

[8] = system: ryegrass, Italian (Italian ryegrass, Lolium multiflorum); test: Test A postemergence; details: Lolium multiflorum, post-emergence, 240 h, 125 g ai/ha, Postemergence; visual injury after approximately 10 d; 0 to 100 scale where 0 is no effect and 100 is complete control; read-out: Plant response rating, Ryegrass, Italian
In short: as §1

[9] = system: barnyardgrass (Echinochloa crus-galli); test: Test A postemergence; details: Echinochloa crus-galli, post-emergence, 240 h, 125 g ai/ha, Postemergence; visual injury after approximately 10 d; 0 to 100 scale where 0 is no effect and 100 is complete control; read-out: Plant response rating, Barnyardgrass
In short: as §1

[10] = system: sedge, umbrella (small-flower umbrella sedge, Cyperus difformis); test: Test B flooded paddy test; details: Cyperus difformis, Flood, 250 g ai/ha; scale of 0 to 100 where 0 is no effect and 100 is complete control; read-out: Sedge, Umbrella plant response rating
In short: (§2)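 Greenhouse paddy pots with 2-leaf stage plants received compound by direct addition to floodwater 3 cm deep, kept at that level. Scored visually at 13–15 d versus controls (0 no effect; 100 complete control).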

[11] = system: ducksalad (Heteranthera limosa); test: Test B flooded paddy test; details: Heteranthera limosa, Flood, 250 g ai/ha; scale of 0 to 100 where 0 is no effect and 100 is complete control; read-out: Ducksalad plant response rating
In short: as §2

rice (Oryra sativa) = test: Test B flooded paddy test; details: Oryza sativa, Flood, 250 g ai/ha; scale of 0 to 100 where 0 is no effect and 100 is complete control; read-out: Rice plant response rating
In short: as §2

[12] = system: barnyardgrass (Echinochloa crus-galli); test: Test B flooded paddy test; details: Echinochloa crus-galli, Flood, 250 g ai/ha; scale of 0 to 100 where 0 is no effect and 100 is complete control; read-out: Barnyardgrass plant response rating
In short: as §2

Kochia (Kochia scoparia) [13] = test: Test A preemergence; details: Bassia scoparia, pre-emergence, 240 h; for pest or weed control at 125 g/ha: 125 g ai/ha, Preemergence, visual injury rating after approximately 10 d, read-out: Kochia plant response rating (0 to 100 scale, 0 is no effect, 100 is complete control); for pest or weed control at 500 g/ha: 500 g ai/ha, preemergence, visual injury rating about 10 d after treatment, 0 to 100 scale (0 no effect, 100 complete control), read-out: Kochia plant response rating
In short: as §1

[14] = system: ragweed (common ragweed, Ambrosia elatior); test: Test A preemergence; details: Ambrosia artemisiifolia, pre-emergence, 240 h; for pest or weed control at 125 g/ha: 125 g ai/ha, Preemergence, visual injury rating after approximately 10 d, read-out: Ragweed plant response rating (0 to 100 scale, 0 is no effect, 100 is complete control); for pest or weed control at 500 g/ha: 500 g ai/ha, preemergence, visual injury rating about 10 d after treatment, 0 to 100 scale (0 no effect, 100 complete control), read-out: Ragweed plant response rating
In short: as §1

[15] = system: giant foxtail (Setaria faberii); test: Test A preemergence; details: Setaria faberi, pre-emergence, 240 h; for pest or weed control at 125 g/ha: 125 g ai/ha, Preemergence, visual injury rating after approximately 10 d, read-out: Foxtail, Giant plant response rating (0 to 100 scale, 0 is no effect, 100 is complete control); for pest or weed control at 500 g/ha: 500 g ai/ha, preemergence, visual injury rating about 10 d after treatment, 0 to 100 scale (0 no effect, 100 complete control), read-out: Foxtail, Giant plant response rating
In short: as §1

[16] = system: pigweed (Amaranthus retroflexus); test: Test A preemergence; details: Amaranthus retroflexus, pre-emergence, 240 h; for pest or weed control at 125 g/ha: 125 g ai/ha, Preemergence, visual injury rating after approximately 10 d, read-out: Pigweed plant response rating (0 to 100 scale, 0 is no effect, 100 is complete control); for pest or weed control at 500 g/ha: 500 g ai/ha, preemergence, visual injury rating about 10 d after treatment, 0 to 100 scale (0 no effect, 100 complete control), read-out: Pigweed plant response rating
[17] = system: ryegrass, Italian (Italian ryegrass, Lolium multiflorum); test: Test A preemergence; details: Lolium multiflorum, pre-emergence, 240 h; for pest or weed control at 125 g/ha: 125 g ai/ha, Preemergence, visual injury rating after approximately 10 d, read-out: Ryegrass, Italian plant response rating (0 to 100 scale, 0 is no effect, 100 is complete control); for pest or weed control at 500 g/ha: 500 g ai/ha, preemergence, visual injury rating about 10 d after treatment, 0 to 100 scale (0 no effect, 100 complete control), read-out: Ryegrass, Italian plant response rating
In short: as §1

[18] = system: barnyardgrass (Echinochloa crus-galli); test: Test A preemergence; details: Echinochloa crus-galli, pre-emergence, 240 h; for pest or weed control at 125 g/ha: 125 g ai/ha, Preemergence, visual injury rating after approximately 10 d, read-out: Barnyardgrass plant response rating (0 to 100 scale, 0 is no effect, 100 is complete control); for pest or weed control at 500 g/ha: 500 g ai/ha, preemergence, visual injury rating about 10 d after treatment, 0 to 100 scale (0 no effect, 100 complete control), read-out: Barnyardgrass plant response rating
In short: as §1

SMILES: CN1C[C@H](c2ccc(C(F)(F)F)cc2)[C@@H](C(=O)Nc2ccccc2Br)C1=O [Compound 943]
- pest or weed control at 125 g/ha (Kochia (Kochia scoparia) [1]): 30%
- pest or weed control at 125 g/ha [2]: 70%
- pest or weed control at 125 g/ha [3]: 0%
- plant injury at 125 g/ha [4]: 0%
- pest or weed control at 125 g/ha [5]: 90%
- pest or weed control at 125 g/ha [6]: 40%
- Corn plant response rating (crop injury, 0 = no effect, 100 = complete kill) at 125 g/ha (corn (Zea mays)): 20%
- pest or weed control at 125 g/ha [7]: 40%
- pest or weed control at 125 g/ha [8]: 0%
- pest or weed control at 125 g/ha [9]: 70%
- pest or weed control at 250 g/ha [10]: 0%
- pest or weed control at 250 g/ha [11]: 50%
- pest or weed control at 250 g/ha (rice (Oryra sativa)): 0%
- pest or weed control at 250 g/ha [12]: 0%
- pest or weed control at 125 g/ha (Kochia (Kochia scoparia) [13]): 70%
- pest or weed control at 500 g/ha (Kochia (Kochia scoparia) [13]): 80%
- pest or weed control at 125 g/ha [14]: 0%
- pest or weed control at 500 g/ha [14]: 30%
- pest or weed control at 125 g/ha [15]: 90%
- pest or weed control at 500 g/ha [15]: 90%
- pest or weed control at 125 g/ha [16]: 40%
- pest or weed control at 500 g/ha [16]: 50%
- pest or weed control at 125 g/ha [17]: 0%
- pest or weed control at 500 g/ha [17]: 50%
- pest or weed control at 125 g/ha [18]: 90%
- pest or weed control at 500 g/ha [18]: 90%

SMILES: CCOc1cccc([C@H]2CNC(=O)[C@@H]2C(=O)Nc2ccccc2F)c1 [Compound 949]
- pest or weed control at 125 g/ha (Kochia (Kochia scoparia) [1]): 0%
- pest or weed control at 125 g/ha [2]: 0%
- pest or weed control at 125 g/ha [3]: 0%
- plant injury at 125 g/ha [4]: 0%
- pest or weed control at 125 g/ha [5]: 20%
- pest or weed control at 125 g/ha [6]: 0%
- Corn plant response rating (crop injury, 0 = no effect, 100 = complete kill) at 125 g/ha (corn (Zea mays)): 0%
- pest or weed control at 125 g/ha [7]: 0%
- pest or weed control at 125 g/ha [8]: 0%
- pest or weed control at 125 g/ha [9]: 90%
- pest or weed control at 250 g/ha [10]: 0%
- pest or weed control at 250 g/ha [11]: 100%
- pest or weed control at 250 g/ha (rice (Oryra sativa)): 15%
- pest or weed control at 250 g/ha [12]: 30%
- pest or weed control at 125 g/ha (Kochia (Kochia scoparia) [13]): 20%
- pest or weed control at 500 g/ha (Kochia (Kochia scoparia) [13]): 50%
- pest or weed control at 125 g/ha [14]: 0%
- pest or weed control at 500 g/ha [14]: 0%
- pest or weed control at 125 g/ha [15]: 60%
- pest or weed control at 500 g/ha [15]: 70%
- pest or weed control at 125 g/ha [16]: 0%
- pest or weed control at 500 g/ha [16]: 0%
- pest or weed control at 125 g/ha [17]: 0%
- pest or weed control at 500 g/ha [17]: 0%
- pest or weed control at 125 g/ha [18]: 70%
- pest or weed control at 500 g/ha [18]: 100%
